Literature values in patent publication US20260315500A1, “SOLID CANNABINOID COMPOSITION FOR PARENTERAL USE” (Bender Analytical Holding B.V., priority 2023, published 2026).
≈ marks a conversion by molar mass, not a printed value.

Columns and labels:
[1] = system: neuronal and glial cells; conditions: preclinical; functional, neuroimaging, histologic and biochemical studies
[2] = 23° C.

| SMILES | neuroprotective effects [1] | water solubility [2] |
| --- | --- | --- |
| C=C(C)[C@@H]1CCC(C)=C[C@H]1c1c(O)cc(CCCCC)cc1O [Cannabidiol] | protects neuronal and glial cells, with a remarkable effect on preserving normal myelinogenesis | – |
| CCCCCc1cc(O)c2c(c1)OC(C)(C)[C@@H]1CCC(C)=C[C@@H]21 [Tetrahydrocannabinol (THC), Tetrahydrocannabinol] | – | 2.8 µg/mL (≈ 8.9 µM) |
